Drawing on patent US12545639B2, “3-substituted phenylamidine compounds, preparation and use thereof” (PI INDUSTRIES LTD., priority 2019, dated 2026), this text covers pest or weed control and inhibition of growth for 33 molecules.

Each structure is given as a SMILES string. Bounds are passed on as bounds.

In assay [1] the test system is Phakopsora pachyrhizi. The assay is described as follows: Phakopsora pachyrhizi test in soybean, preventive, in vivo on plants. The conditions noted are these: in Glycine max, read-out: Efficacy (% control), disease severity compared to the untreated check.
Assay [2] concerns Rhizoctonia solani. Nature of the assay: Rhizoctonia solani (rice sheath blight/potato black scurf) in vitro test, radial growth on potato dextrose agar. The following applies: 168 h, 300 ppm in potato dextrose agar, 25° C., 60% relative humidity, seven days, read-out: control compared to the untreated check (radial growth). The class given is cell-based.
Assay [3] deals with Alternaria solani. The assay is described as follows: Alternaria solani (early blight of tomato/potato) in vitro test, radial growth on potato dextrose agar. The class given is cell-based. The following applies: 168 h, 300 ppm in potato dextrose agar, 25° C., 60% relative humidity, seven days, read-out: control compared to the untreated check (radial growth).
Assay [4] has as its system Pyricularia oryzae. Nature of the assay: microbe, parasite or virus in culture. The class given is cell-based. The following applies: 168 h, read-out: control compared to the untreated check (radial growth).

For `CCN(C)C=Nc1cc(C)cc(N(C)c2cnccn2)c1Cl` [Compound 210, N′-(2-chloro-5-methyl-3-(methyl(pyrazin-2-yl)amino)phenyl)-N-ethyl-N-methylformimidamide], the pest or weed control at 500 ppm in assay [1] was not below 70%.

With `CCN(C)C=Nc1cc(C)cc(Nc2ccccc2OC(F)F)c1Cl` [Compound 177, N′-(2-chloro-3-((2-(difluoromethoxy)phenyl)amino)-5-methylphenyl)-N-ethyl-N-methylformimidamide], the inhibition of growth at 300 ppm in assay [2], in assay [3] and in assay [4] was not below 70% in each case.

With `CCN(C)C=Nc1cc(F)cc(Nc2ncccn2)c1C` [Compound 187, N-ethyl-N′-(5-fluoro-2-methyl-3-(pyrimidin-2-ylamino)phenyl)-N-methylformimidamide], the pest or weed control at 500 ppm in assay [1] was not below 70%.

For `CCN(C)C=Nc1cc(OC)cc(Cc2cccc(C#N)c2)c1C` [Compound 306, N′-(3-(3-cyanobenzyl)-5-methoxy-2-methylphenyl)-N-ethyl-N-methylformimidamide], the inhibition of growth at 300 ppm in assay [2], in assay [3] and in assay [4] was not below 70% throughout.

As to `CCN(C)C=Nc1cc(F)cc(Cc2ccccc2C#N)c1C` [Compound 168, N′-(3-(2-cyanobenzyl)-5-fluoro-2-methylphenyl)-N-ethyl-N-methylformimidamide], the inhibition of growth at 300 ppm in assay [2], in assay [3] and in assay [4] was not below 70% throughout.

Turning to `CCN(C)C=Nc1cc(C)cc(Nc2cnccn2)c1Cl` [Compound 194, N′-(2-chloro-5-methyl-3-(pyrazin-2-ylamino)phenyl)-N-ethyl-N-methylformimidamide], the pest or weed control at 500 ppm in assay [1] is not below 70%.

Take `CCN(C)C=Nc1cc(C)cc(N(C)c2ccc3c(c2)OCCO3)c1Cl` [Compound 184, N′-(2-chloro-3-((2,3-dihydrobenzo[b][1,4]dioxin-6-yl)(methyl)amino)-5-methylphenyl)-N-ethyl-N-methylformimidamide]: in assay [1], the pest or weed control at 500 ppm is not below 70%.

As for `CCN(C)C=Nc1cc(C)cc(N(C)c2ncccn2)c1Cl` [Compound 192, N′-(2-chloro-5-methyl-3-(methyl(pyrimidin-2-yl)amino)phenyl)-N-ethyl-N-methylformimidamide], the pest or weed control at 500 ppm in assay [1] is not below 70%.

Consider `CCN(C)C=Nc1cc(F)cc(Cc2ccc(SC)cc2)c1C` [Compound 241, N-ethyl-N′-(5-fluoro-2-methyl-3-(4-(methylthio)benzyl)phenyl)-N-methylformimidamide], for which the inhibition of growth at 300 ppm in assay [2], in assay [3] and in assay [4] was not below 70% each time.

Turning to `CCN(C)C=Nc1cc(C)cc(Nc2ncccc2C(F)(F)F)c1Cl` [Compound 135, N′-(2-chloro-5-methyl-3-((3-(trifluoromethyl)pyridin-2-yl)amino)phenyl)-N-ethyl-N-methylformimidamide], the inhibition of growth at 300 ppm in assay [2] and in assay [4] was not below 70% each time.

With `CCN(C)C=Nc1cc(F)cc(N(C)c2ncccc2C(F)(F)F)c1C` [Compound 153, N-ethyl-N′-(5-fluoro-2-methyl-3-(methyl(3-(trifluoromethyl)pyridin-2-yl)amino)phenyl)-N-methylformimidamide], the pest or weed control at 500 ppm in assay [1] was not below 70%. The inhibition of growth at 300 ppm in assay [3] is not below 70%.

In the case of `CCN(C)C=Nc1cc(Cl)cc(Nc2cccc(C)c2)c1C` [Compound 154, N′-(5-chloro-2-methyl-3-(m-tolylamino)phenyl)-N-ethyl-N-methylformimidamide], the inhibition of growth at 300 ppm in assay [2], in assay [3] and in assay [4] was not below 70% each time.

As for `CCN(C)C=Nc1cc(C)cc(Cc2cccc(C(F)(F)F)c2)c1Cl` [Compound 53, N′-(2-chloro-5-methyl-3-(3-(trifluoromethyl)benzyl)phenyl)-N-ethyl-N-methylformimidamide], the pest or weed control at 500 ppm in assay [1] was not below 70%. The inhibition of growth at 300 ppm in assay [3] is not below 70%.

Take `CCN(C)C=Nc1cc(C)cc(Cc2ccc(F)cc2Br)c1Cl` [Compound 215, N′-(3-(2-bromo-4-fluorobenzyl)-2-chloro-5-methylphenyl)-N-ethyl-N-methylformimidamide]: in assay [1], the pest or weed control at 500 ppm is not below 70%.

Take `CCN(C)C=Nc1cc(OC)cc(Cc2cccc(C)c2)c1C` [Compound 278, N-ethyl-N′-(5-methoxy-2-methyl-3-(3-methylbenzyl)phenyl)-N-methylformimidamide]: in assay [1], the pest or weed control at 500 ppm was not below 70%.

On to `CCN(C)C=Nc1cc(OC)cc(Cc2ccc(Cl)cc2)c1C` [Compound 279, N′-(3-(4-chlorobenzyl)-5-methoxy-2-methylphenyl)-N-ethyl-N-methylformimidamide], for which, in assay [1], the pest or weed control at 500 ppm is not below 70%.

`CCN(C)C=Nc1cc(Cl)cc(N(C)c2ccc(OC)cc2)c1C` [Compound 167, N′-(5-chloro-3-((4-methoxyphenyl)(methyl)amino)-2-methylphenyl)-N-ethyl-N-methylformimidamide]: the inhibition of growth at 300 ppm in assay [2], in assay [3] and in assay [4] was not below 70% in each case.

Take `CCN(C)C=Nc1cc(F)cc(Cc2cccnc2)c1C` [Compound 260, N-ethyl-N′-(5-fluoro-2-methyl-3-(pyridin-3-ylmethyl)phenyl)-N-methylformimidamide]: the inhibition of growth at 300 ppm in assay [2] and in assay [3] was not below 70% in each case.

As for `CCN(C)C=Nc1cc(F)cc(Nc2cnccn2)c1C` [Compound 193, N-ethyl-N′-(5-fluoro-2-methyl-3-(pyrazin-2-ylamino)phenyl)-N-methylformimidamide], the pest or weed control at 500 ppm in assay [1] is not below 70%.

`CCN(C)C=Nc1cc(OC)cc(Cc2ccc(F)c(Cl)c2)c1C` [Compound 282, N′-(3-(3-chloro-4-fluorobenzyl)-5-methoxy-2-methylphenyl)-N-ethyl-N-methylformimidamide]: the pest or weed control at 500 ppm in assay [1] was not below 70%.

Consider `CCN(C)C=Nc1cc(OC)cc(Cc2cc(F)ccc2C)c1C` [Compound 281, N-ethyl-N′-(3-(5-fluoro-2-methylbenzyl)-5-methoxy-2-methylphenyl)-N-methylformimidamide], for which the pest or weed control at 500 ppm in assay [1] was not below 70%.

In the case of `CCN(C)C=Nc1cc(C)cc(Nc2cc(C)cc(F)c2)c1Cl` [Compound 111, N′-(2-chloro-3-((3-fluoro-5-methylphenyl)amino)-5-methylphenyl)-N-ethyl-N-methylformimidamide], in assay [1], the pest or weed control at 500 ppm was not below 70%. Moreover, in assay [4], the inhibition of growth at 300 ppm was not below 70%.

For `CCN(C)C=Nc1cc(C)cc(NCc2cnc(C)cn2)c1Cl` [Compound 196, N′-(2-chloro-5-methyl-3-(((5-methylpyrazin-2-yl)methyl)amino)phenyl)-N-ethyl-N-methylformimidamide], the pest or weed control at 500 ppm in assay [1] is not below 70%.

`CCN(C)C=Nc1cc(C)cc(Nc2ccccn2)c1Cl` [Compound 85, N′-(2-chloro-5-methyl-3-(pyridin-2-ylamino)phenyl)-N-ethyl-N-methylformimidamide]: the pest or weed control at 500 ppm in assay [1] is not below 70%. In addition, in assay [3], the inhibition of growth at 300 ppm is not below 70%.

`CCN(C)C=Nc1cc(F)cc(N(C)c2ccccn2)c1C` [Compound 109, N-ethyl-N′-(5-fluoro-2-methyl-3-(methyl(pyridin-2-yl)amino)phenyl)-N-methylformimidamide]: the pest or weed control at 500 ppm in assay [1] is not below 70%.

Regarding `CCN(C)C=Nc1cc(C)cc(NC(C)Cc2cnccn2)c1Cl` (stereo not drawn) [Compound 195, N′-(2-chloro-5-methyl-3-((1-(pyrazin-2-yl)propan-2-yl)amino)phenyl)-N-ethyl-N-methylformimidamide], the pest or weed control at 500 ppm in assay [1] is not below 70%.

Take `CCN(C)C=Nc1cc(OC)cc(N(C)c2ccccc2OC)c1C` [Compound 270, N-ethyl-N′-(5-methoxy-3-((2-methoxyphenyl)(methyl)amino)-2-methylphenyl)-N-methylformimidamide]: the pest or weed control at 500 ppm in assay [1] is not below 70%.

Consider `CCN(C)C=Nc1cc(C)cc(N(C)c2ccc(F)cc2F)c1Cl` [Compound 82, N′-(2-chloro-3-((2,4-difluorophenyl)(methyl)amino)-5-methylphenyl)-N-ethyl-N-methylformimidamide], for which the inhibition of growth at 300 ppm in assay [2], in assay [3] and in assay [4] was not below 70% each time.

Consider `CCN(C)C=Nc1cc(C)cc(Nc2ccc3c(c2)OCCO3)c1Cl` [Compound 169, N′-(2-chloro-3-((2,3-dihydrobenzo[b][1,4]dioxin-6-yl)amino)-5-methylphenyl)-N-ethyl-N-methylformimidamide], for which the inhibition of growth at 300 ppm in assay [2], in assay [3] and in assay [4] was not below 70% each time.

Consider `CCN(C)C=Nc1cc(F)cc(Nc2ccccn2)c1C` [Compound 95, N-ethyl-N′-(5-fluoro-2-methyl-3-(pyridin-2-ylamino)phenyl)-N-methylformimidamide], for which, in assay [1], the pest or weed control at 500 ppm was not below 70%.

`CCN(C)C=Nc1cc(Cl)cc(Nc2cnccn2)c1C` [Compound 211, N′-(5-chloro-2-methyl-3-(pyrazin-2-ylamino)phenyl)-N-ethyl-N-methylformimidamide]: the pest or weed control at 500 ppm in assay [1] was not below 70%.

For `CCN(C)C=Nc1cc(OC)cc(N(C)c2ccc(F)c(OC)c2)c1C` [Compound 284, N-ethyl-N′-(3-((4-fluoro-3-methoxyphenyl)(methyl)amino)-5-methoxy-2-methylphenyl)-N-methylformimidamide], the pest or weed control at 500 ppm in assay [1] was not below 70%.

Regarding `CCN(C)C=Nc1cc(C)cc(N(C)c2ccc(OC)cc2)c1Cl` [Compound 64, N′-(2-chloro-3-((4-methoxyphenyl)(methyl)amino)-5-methylphenyl)-N-ethyl-N-methylformimidamide], the inhibition of growth at 300 ppm in assay [2], in assay [3] and in assay [4] was not below 70% each time.
